Consider two molecules from patent US10583128B2, “Treatment of diseases related to alpha subunits of sodium channels, voltage-gated (SCNxA) with small molecules” (CuRNA, Inc., priority 2011, dated 2020).

The subject of assay [1] is SCN1A mRNA. Kind of assay: Upregulation of SCN1A mRNA in primary human skin fibroblasts carrying a Dravet-associated mutation (real time PCR). It is filed as cell-based. The conditions noted are these: Homo sapiens, Skin fibroblast, compound 1 uM, 24-48 h, 18S-normalized vs vehicle (DMSO), average upregulation, read-out: fold increase in SCN1A mRNA levels, SCN1A fibroblasts, Avg. Here is the method: (§1) Transfer of a small molecule into a host cell or organism and determination of its effect upon RNA or protein up-regulation or down regulation can be assessed by several methods well known in the art. For example, SCN1A fibroblasts and/or keratinocytes or other cell types as desired are selected and grown for the specific assays herein. One day before the experiment cells are plated at the density of approximately 4×10^4/well into 24 well plates in Growth Media and incubated at 37° C. and 5% CO2 overnight. Next day, the media in the 24 well plates is changed to fresh Growth Media (1 ml/well) and the cells are dosed with small compounds. Compound stocks are prepared in DMSO at a concentration of 1 mM. At the time of the experiment 1 mM stock solutions are diluted to the concentration of 1 uM in Growth Media. One in 1000 dilution of DMSO is used for the control wells. After 24-48 h incubation at 37° C. and 5% CO2 the media is removed and RNA is extracted from the cells using SV Total RNA Isolation System from Promega (cat # Z3105) following the manufacturers' instructions. Six hundred nanograms of purified total RNA is added to the reverse transcription reaction performed using SuperScript VILO cDNA Synthesis Kit from Invitrogen (cat #11754-250) as described in the manufacturer's protocol. The cDNA from this reverse transcription reaction is used to monitor gene expression by real time PCR using ABI Taqman Gene Expression Mix (cat #4369510) and primers/probes designed by ABI (assays Hs00374696_ml, Hs00897350_ml or Hs00897341_ml for human SCN1A). The following PCR cycle is used: 50° C. for 2 min, 95° C. for 10 min, 40 cycles of (95° C. for 15 seconds, 60° C. for 1 min) using StepOne Plus Real Time PCR system (Applied Biosystems). The assay for 18S is manufactured by ABI (cat #4319413E). Fold change in gene expression after treatment with compounds is calculated based on the difference in 18S-normalized dCt values between compound- and vehicle-treated samples.
In Example 1 primary human skin fibroblasts carrying Dravet-associated SCN1A mutation were treated with small compounds at a final concentration of 1 uM.
Primary human skin fibroblasts carrying Dravet-associated SCN1A mutation introduced into culture by Dr. N. Kenyon (University of Miami) were grown in Growth Media consisting of a-MEM (Gibco, cat: 12561-056)+10% FBS (Mediatech, cat: 35-015 CV)+1% Antimycotic-Antibiotic (Gibco, cat: 15240-062) at 37° C. and 5% CO2. One day before the experiment cells were plated at the density of approximately 4×10^4/well into 24 well plates in Growth Media and incubated at 37° C. and 5% CO2 overnight. Next day, the media in the 24 well plates was changed to fresh Growth Media (I ml/well) and the cells were dosed with small compounds. All compounds were available from commercial sources. Compound stocks were prepared in DMSO at a concentration of 1 mM. At the time of the experiment 1 mM stock solutions were diluted to the concentration of 1 uM in Growth Media. One in 1000 dilution of DMSO was used for the control wells. After 24-48 h incubation at 37° C. and 5% CO2 the media was removed and RNA was extracted from the cells using SV Total RNA Isolation System from Promega (cat # Z3105) following the manufacturers' instructions. Six hundred nanograms of purified total RNA was added to the reverse transcription reaction performed using SuperScript VILO cDNA Synthesis Kit from Invitrogen (cat #11754-250) as described in the manufacturer's protocol. The cDNA from this reverse transcription reaction was used to monitor gene expression by real time PCR using ABI Taqman Gene Expression Mix (cat #4369510) and primers/probes designed by ABI (assays Hs00374696_ml, Hs00897350_ml or Hs00897341_ml for human SCN1A). Results obtained using all three assays were very similar (data not shown). […]

Assay [2] concerns SCN1A mRNA. Kind of assay: Upregulation of SCN1A mRNA in adult primary human keratinocytes (real time PCR). It is filed as cell-based. The conditions noted are these: Homo sapiens, Keratinocyte, compound 1 uM, 24-48 h, 18S-normalized vs vehicle (DMSO), average upregulation, read-out: fold increase in SCN1A mRNA levels, Keratinocytes, Avg. The protocol: as §1
In Example 2 primary human keratinocytes were treated with small compounds at a final concentration of 1 uM.
Adult primary human keratinocytes from PromoCell (Heidelberg, Germany, cat # C-12003) or LifeLine Cell Technology (Frederick, Md., cat # FC-0025) were grown in Growth Media supplied by the manufacturers at 37° C. and 5% CO2. One day before the experiment cells were plated at the density of approximately 4×10^4/well into 24 well plates in Growth Media and incubated at 37° C. and 5% CO2 overnight. Next day, the media in the 24 well plates was changed to fresh Growth Media (1 ml/well) and the cells were dosed with small compounds. All compounds were available from commercial sources.
Compound stocks were prepared in DMSO at a concentration of 1 mM. At the time of the experiment 1 mM stock solutions were diluted to the concentration of 1 uM in Growth Media. One in 1000 dilution of DMSO was used for the control wells. After 24-48 h incubation at 37° C. and 5% CO2 the media was removed and RNA was extracted from the cells using SV Total RNA Isolation System from Promega (cat # Z3105) following the manufacturers' instructions. Six hundred nanograms of purified total RNA was added to the reverse transcription reaction performed using SuperScript VILO cDNA Synthesis Kit from Invitrogen (cat #11754-250) as described in the manufacturer's protocol. The cDNA from this reverse transcription reaction was used to monitor gene expression by real time PCR using ABI Taqman Gene Expression Mix (cat #4369510) and primers/probes designed by ABI (assays Hs00374696_ml, Hs00897350_ml or Hs00897341_ml for human SCN1A). Results obtained using all three assays were very similar (data not shown). The following PCR cycle was used: 50° C. for 2 min, 95° C. for 10 min, 40 cycles of (95° C. for 15 seconds, 60° C. for 1 min) using StepOne Plus Real Time PCR system (Applied Biosystems). The assay for 18S was manufactured by ABI (cat #4319413E). […]
For orientation: In qPCR the cycle at which signal appears reflects the starting amount.

Consider `CN1CC(=O)N2[C@H](c3ccc4c(c3)OCO4)c3[nH]c4ccccc4c3C[C@@H]2C1=O` [Tadalafil, (6R-trans)-6-(1,3-benzodioxol-S-yl)-2,3,6,7,12,12a-hexahydro-2-methyl-pyrazino[1′,2′:1,6]pyrido[3,4-b]indole-1,4-dione], for which the fold induction at 1 µM worked out at 2.73 in assay [1] and 2.79 in assay [2].
In the case of `C[C@H]1CCC[C@H](O)CCCCCc2cc(O)cc(O)c2C(=O)O1` [Zeranol, (3S,7R)-7,14,16-trihydroxy-3-methyl-3,4,5,6,7,8,9,10,11,12-decahydro-1H-2-benzoxacyclotetradecin-1-one], the values for the fold induction at 1 µM in assay [1] and in assay [2] were 2.6 and 4.51, respectively.
